{
  "source": "patent US20230313296A1",
  "about": "“USING FLUORESCENT COLLAGEN α 1(I) AND α 2(I) mRNAs TO SCREEN DRUG CANDIDATES” (Florida State University Research Foundation, Inc., priority 2022, published 2023)",
  "key": {"[1]": {"molecular_target": "T1, recombinant LA-domain of LARP6 (Homo sapiens, UniProt Q9BRS8)", "T1 construct": "recombinant LA-domain of LARP6", "T1 sequence (Q9BRS8 86-177 limits assumed)": "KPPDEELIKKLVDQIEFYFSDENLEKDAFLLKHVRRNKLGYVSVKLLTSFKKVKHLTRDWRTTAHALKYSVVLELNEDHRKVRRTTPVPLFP", "test": "Fluorescence of the fluorescent ɑ2(I) 5′SL compound on LA-domain binding", "conditions": "increasing concentrations of recombinant LA-domain; FIG. 4", "from_the_text": "This compound was less bright because its fluorophore has an emission that is about 7-fold less intense than that of the fluorescent ɑ1(I) 5′SL compound.\n(§1) The decrease in the excitation spectrum (left, measured at 450 nm emission) and the emission spectrum (right, measured at 340 nm excitation) with increasing concentrations of recombinant LA-domain is shown in FIG. 5."}, "[2]": {"system": "collagen ɑ1(I) 5′SL mRNA (2AP at G10)", "test": "Fluorescence measurement of the fluorescent ɑ1(I) 5′SL compound with test compound", "format": "binding, human", "conditions": "test compound added in micromolar concentrations; FIG. 5 top panel", "from_the_text": "When the first fluorescent compound has the fluorophore 2AP substituted at the G10 position of the collagen ɑ1(I) 5′ stem loop mRNA and the fluorescence intensity increases, this indicates the first fluorescent compound has bound to LARP6.\n(§2) The fluorescence intensity of the 2AP and PC fluorophores depends on their environment in the RNA fold, and the environment changes upon LARP6 or test compound binding to the RNA. The increase in fluorescence is seen if a fluorophore rotates outwards from its position within the RNA. This was seen when LARP6 bound to the fluorescent ɑ1(I) 5′SL compound. The fluorescence decreases if a fluorophore is masked by the bound drug or LARP6.\n(§3) Referring to FIG. 5, the fluorescence measurements were performed using epirubicin as the test compound or drug."}, "[3]": {"system": "collagen ɑ2(I) 5′SL mRNA (PC at C37)", "test": "Fluorescence measurement of the fluorescent ɑ2(I) 5′SL compound with test compound", "format": "binding, human", "conditions": "increasing drug concentrations; FIG. 5 bottom panel", "from_the_text": "When the second fluorescent compound has the fluorophore PC at the C37 position of the collagen ɑ2(I) 5′ stem loop mRNA and the fluorescence intensity decreases when contacted with LARP6, this indicates binding of the second fluorescent compound to LARP6.\nas §2, §3"}, "[4]": {"system": "complex of recombinant LA-domain of LARP6 with 5′SL RNA", "test": "Gel mobility shift assay of LA-domain/5′SL RNA complex", "format": "binding", "conditions": "FIG. 6 lanes 4 and 5", "from_the_text": "FIG. 6 is a gel mobility shift assay showing free RNA (RNA) and complex of LA-domain bound to RNA (RNA/LA). Lane 1 contains RNA only. Lane 2 contains the RNA/LA complex in absence of the test compound. Lanes 3-5 show dissociation of RNA/LA complexes with the test compound.\nThe inhibitory effect of this test compound on LARP6 binding was directly tested by gel mobility shift experiments, the results of which are in FIG. 6. This assay confirms the formation of a protein/RNA complex by physically separating them from free RNA. Without the test compound, the recombinant LA-domain of LARP6 formed a complex with 5′SL RNA (FIG. 6, lane 2, RNA/LA). […] This proves that the fluorescent 5′SL RNA compounds can be used to identify molecules that interact with 5′SL RNA and that are competitors of LARP6 binding and may be antifibrotic drugs."}, "[5]": {"molecular_target": "T1, recombinant LA-domain of LARP6", "test": "Fluorescence of the fluorescent ɑ1(I) 5′SL compound on LA-domain binding", "conditions": "saturating amounts of LA-domain vs free compound; p<0.0001; FIG. 3", "protocol": "The increase resulted from flipping of the 2AP at the G10 position out of the fold. The increase in intensity of the excitation spectrum (left, measured at 370 nm emission) and the emission spectrum (right, measured at 310 nm excitation) were apparent when increasing concentrations of recombinant LA-domain of LARP6 were added to the sensor. The LA-domain is necessary and sufficient for 5′SL RNA recognition by LARP6 and recapitulates the full size LARP6 binding.\nThe increase in intensity of fluorescence emission with binding of the LA-domain was quantified by measuring the fluorescence of free fluorescent ɑ1(I) 5′SL compound and the same compound bound with saturating amounts of the LA-domain.\nThe intensity increased about 2-fold with statistical significance of p<0.0001."}, "LARP6 LA-domain": {"molecular_target": "T2, LARP6 LA-domain (UniProt Q9BRS8 Q9BRS8:86-177)", "T2 sequence": "T1 sequence (Q9BRS8 86-177 limits assumed)", "test": "pyrrolo-cytidine fluorescence decreases with increasing LA-domain", "conditions": "label: pyrrolo-cytidine at position 37; 5' stem-loop", "from_the_text": "as §1"}},
  "data": [
    {"molecule": "fluorescent ɑ2(I) 5′SL compound: SEQ ID NO: 2 collagen ɑ2(I) 5′SL RNA with C37 nucleotide substituted with pyrrolo-cytidine (PC)", "values": [
      {"measurement": "fluorescence response to LA-domain binding", "setting": "[1]", "value": "decreasing its fluorescence"}
    ]},
    {"molecule": "COc1cccc2c1C(=O)c1c(O)c3c(c(O)c1C2=O)C[C@@](O)(C(=O)CO)C[C@@H]3O[C@H]1C[C@H](N)[C@@H](O)[C@H](C)O1", "note": "[epirubicin]", "values": [
      {"measurement": "change of fluorescence intensity of the fluorescent ɑ1(I) 5′SL compound", "setting": "[2]", "value": "decreased in the concentration dependent manner"},
      {"measurement": "change of fluorescence intensity of the fluorescent ɑ2(I) 5′SL compound", "setting": "[3]", "value": "decrease in fluorescence with increasing drug concentrations"},
      {"measurement": "concentration of test compound at which formation of RNA/LA complex was diminished", "setting": "[4]", "value": "> 50", "unit": "µM"}
    ]},
    {"molecule": "fluorescent ɑ1(I) 5′SL compound: SEQ ID NO: 1 collagen ɑ1(I) 5′SL RNA with G10 nucleotide substituted with 2-amino-purine (2AP) (CCACAAAGAGUCUACAUGUCUAGGGUCUAGACAUGUUCAGCUUUGUGG; G10 replaced by 2-aminopurine; listed as Homo sapiens)", "values": [
      {"measurement": "increase in intensity of fluorescent emission on binding of the LA-domain", "setting": "[5]", "value": "about 2 fold"}
    ]},
    {"molecule": "CACAAGGAGUCUGCAUGUCUAAGUGCUAGACAUGCUCAGCUUUGUG (ssRNA, C37 substituted with pyrrolo-cytidine)", "note": "[fluorescent collagen a2(I) 5'SL]", "values": [
      {"measurement": "binding result", "setting": "LARP6 LA-domain", "value": "binds"}
    ]}
  ]
}
